Test results reported in patent US20110250632A1 (priority 2008, published 2011).

Tested on: adenylate cyclase
Experiment: cAMP assay of cryopreserved AD293 cells, forskolin stimulation
Type: cell-based, human
Description: As a control, rise in intracellular cAMP concentrations was also separately monitored when the ubiquitously expressed adenylate cyclase activity was challenged with its respective agonist forskolin. In the AD293 cell line only the adenylate cyclase activity was monitored.
As the DiscoveRx assay systems are designed to monitor intracellular cAMP concentrations the assay medium is supplemented with the general phosphodiesterase inhibitor isobutylmethylxanthine (IBMX) at a final concentration of 1 mM.
Forskolin assay—Forskolin (Sigma F6886-10 mg) was dissolved in DMSO to a stock concentration of 10 mM. This was then serially diluted using half-log dilutions to generate a final forskolin concentration range in the assay medium ranging from 316 μM-3.16 nM.
DiscoveRx HITHUNTER™ cAMP II assay—This was performed according to the manufacturer's instructions and briefly involved the following. On resurrection from storage at −140° C., cells frozen on cell culture treated 96-well plates were allowed to thaw. On defrosting the cryopreservation medium was removed and the cells washed twice with PBS. […]
Typically for an assay performed in a 96-well cell culture treated plate 20,000 cells were used. […] The assay plates were incubated at room temperature for 4 hrs and the cAMP concentration determined by monitoring the generation of the luminescent signal using the LEADSEEKER™ Instrument platform.

C=C[C@@]1(C)CC(=O)[C@]2(O)[C@@]3(C)[C@@H](O)CCC(C)(C)[C@@H]3[C@H](O)[C@H](OC(C)=O)[C@@]2(C)O1 [forskolin, Forskolin]
S:B (minus poly lysine): 2.5
S:B (plus poly-lysine): 3.0
